Measured values reported in patent US20060058312A1, “Stabilized aqueous preparation for injection” (priority 2004, published 2006).

Tests used:
[1] = Transmittance and coloring of the aqueous solution during storage; format: physicochemical; details: added to aqueous solution of the calcium salt, during storage
Source text: The suppressing effect can be attained by the action of ascorbic acid which has been stabilized by sodium pyrosulfite.

[2] = Change of pH value of the aqueous solution during storage; format: physicochemical; details: added to aqueous solution of the calcium salt, pH 6 to 7, during storage

O=C1O[C@H]([C@@H](O)CO)C(O)=C1O [ascorbic acid]
suppression of the lowering of the transmittance and the coloring [1]: effectively be suppressed
suppression of the change of the pH value to the acid region [2]: effectively be suppressed
